Compound | melting point
CCc1cc2c(c(CC)n1)CCC(=O)N2Cc1ccc(-c2ccccc2-c2nnn(C(c3ccccc3)(c3ccccc3)c3ccccc3)n2)cc1 | 165 to 167 °C
Cc1ccc(Cc2cnc(NCCCNc3ccc(C#N)cn3)[nH]c2=O)cn1 | 175 to 177 °C
CCCCCCCCCCCC1CNc2cc(C(=O)O)ccc21 (racemic) | 107 to 111 °C
CN1C(=O)N(CCC(NS(=O)(=O)c2ccc(-c3ccc(Cl)cc3)cc2)C(=O)O)C(=O)C1(C)C (configuration not stated) | 43 °C
O=[N+]([O-])c1cc(-c2nnc(Nc3ccc(Cl)c(Cl)c3)s2)cc([N+](=O)[O-])c1 | 305 to 306 °C
C[Si](C)(C)C#Cc1c[nH]c(=O)[nH]c1=O | 187 to 189 °C
CCc1c(N)c(C(N)=O)nn1C1CN(C(C)C)C1 | 195 to 200 °C
COc1ccccc1NC(=O)NCc1cccc2c1C(=O)N(C1CCC(=O)NC1=O)C2=O (configuration not stated) | 214 to 216 °C
Cc1nn(-c2ccccn2)c2[nH]c3ccccc3c(=S)c12 | 252 to 253 °C
CCOC1C=CC(=O)N1S(=O)(=O)c1ccccc1 (configuration not stated) | 117 to 119 °C
CCn1c(CO)nc(C(C)C)c1Sc1cc(C#N)cc(C#N)c1 | 167 to 169 °C
CCn1nc(C)c2c1C(=O)Nc1ccccc1N2C(=O)CCl | 208 to 210 °C
Clc1ccc(-n2cc(-c3n[nH]c4ccccc34)nn2)cn1 | 272 to 280 °C
CCCCCCCCCCCCCCCC(=O)NC(C(=O)OC)C(O)CCCCCCCCCCCCCCC (configuration not stated) | 80 °C
CC(=S)Nc1ccc(C(=O)O)cc1 | 220 °C
CN(c1ccc(Cl)cc1)S(=O)(=O)c1c[nH]cn1 | 217 to 219 °C
CC1CCC(C(=O)N(C)C)=C2NC=CC(=O)N21 (configuration not stated) | 78 °C
CN=C(NC)Nc1nc(CSCCNC2=NS(=O)(=O)N=C2NC)cs1 | 132 to 137 °C
O=S(=O)(/C=C/c1ccc(F)cc1)Nc1ccc(Cl)cc1 | 126 to 128 °C
C[C@H](C#Cc1ccc(Cc2ccccc2)s1)N(O)C(N)=O | 140 to 142 °C
N#CN1CCC(c2n[nH]c3cc(F)ccc23)CC1 | 143 to 145 °C

Compound | melting point
COc1nc(O)nc(C)c1Cl | 235 °C
CCOC(=O)Cc1c2ccccc2n2c(-c3cccs3)nccc12 | 94 to 95 °C
O=[N+]([O-])c1cccc2c1ccn2S(=O)(=O)c1cccc2ccccc12 | 156 to 157 °C
CCCCCCCCCCCCn1nnc(NC2CCCCC2)n1 | 51 to 53 °C
Nc1ncc(-c2ccc(=O)[nH]n2)c(-c2cccs2)n1 | 265 °C
CC(=O)OC1CC2(C)C(CCC23OCCO3)C2CC=C3CC(O)CCC3(C)C12 (configuration not stated) | 125 to 126 °C
CC(=O)Oc1ccc(C=C2SC(=O)NC2=O)cc1 | 238 to 240 °C
O=C(O)C1CCCN1S(=O)(=O)c1ccc(-c2ccccc2)cc1 (configuration not stated) | 133 to 135 °C
Cc1nc2sc3ccccc3n2n1 | 75 to 76 °C
COc1c(OCc2ccccc2)c(OC)c2c(=O)cc(-c3ccc(OCc4ccccc4)c(OCc4ccccc4)c3)oc2c1OC | 155 to 156 °C
CN(C(=O)NCCc1ccc(F)cc1)c1cccc(-c2ccc(CCC(=O)O)cc2)c1 | 146 °C
CC(O)Cc1cc([N+](=O)[O-])cc([N+](=O)[O-])c1N (configuration not stated) | 168 °C
CN1C(=O)c2ccccc2Nc2ccccc21 | 210 to 211 °C
O=c1ncccn1Cc1ccc2ccccc2c1 | 136 to 145 °C
Cc1cc(C2C=CCC2)c(S(C)(=O)=O)cc1C(=O)N=C(N)N (configuration not stated) | 212 to 214 °C
Cc1nnc(SCC(=O)C23CC4CC(CC(C4)C2)C3)n1C | 113 to 114 °C
CSc1nccn1-c1nc(-c2ccc(Cl)cc2)c(CCC(=O)O)o1 | 225 to 226 °C
CCCc1nc2cc(C(=O)c3ccccc3)ccc2[nH]1 | 131 to 132 °C
Cc1csc2ncc(C(O)CCc3ccccc3)n12 (configuration not stated) | 144 to 145 °C
CCCCCCCCCCCCCCOc1ccc(CC(=O)Cl)cc1 | 78 to 80 °C
O=C(OCc1ccccc1)N1CCSC1=S | 72 °C

Other lines, results leading:

melting point | Compound
188 to 189 °C | COc1ccc2c(c1)C1=C[C@@H](C(=O)NC(C)(C)C)CN(C)[C@@H]1CO2 (relative stereo)
103 °C | COc1cccc(CN=Cc2cccc(O)c2)c1
67.8 °C | Cc1cc(C)cc(C(=O)N2CCC(N3CCC(NCCc4ccccc4)CC3)CC2Cc2ccccc2)c1 (configuration not stated)
229 to 230 °C | COc1ccc(Cl)c2c1CN(Nc1ccncc1)C2
235 to 236 °C | O=C1CSC(C(=O)Nc2ccc(Cl)cc2)Cc2ccc(Cl)cc21 (configuration not stated)
209 to 210 °C | COC(=O)c1ccc(-c2ccc3cc(OCCCCC=C=O)c(C45CC6CC(CC(C6)C4)C5)cc3c2)cc1
203 to 204 °C | CS(=O)(=O)c1ccc(-c2cnn(-c3cccc(Cl)c3)c(=O)c2Cl)cc1
191 to 193 °C | O=C1c2cc3nnn(CCc4cccc(F)c4)c(=O)c3cc2OC2OCCN12 (configuration not stated)
150 to 152 °C | O=c1nc(-c2ccccc2)c2cc([N+](=O)[O-])ccc2n1CC1CCCO1 (configuration not stated)
205 to 206 °C | O=C(Nc1ccc(C(F)(F)F)cc1)c1ccc(-c2nn(Cc3ccccc3)c3ccccc23)o1
115 to 117 °C | CCOC(=O)N1CCC(Nc2cc(OC)ccc2[N+](=O)[O-])CC1
137 to 138 °C | COc1ccc(/C=C/CO)cc1OCc1nc(-c2ccccc2)oc1C
113 °C | CCCNC(=O)c1ccc2c(c1)N(C(C)CN1CCCCCC1)c1ccccc1S2 (racemic)
210 to 212 °C | Fc1cccnc1N1CCN(Cc2nc3ccccc3[nH]2)CC1
142 to 143 °C | CC(c1ccc(Br)cc1)N1CCC(NC(=O)CCc2nc(-c3ccccn3)no2)CC1 (configuration not stated)
146 to 147 °C | Cc1ccc(-n2ccc3c(OCC(C)(C)C)nn(C)c(=O)c32)c(C)c1
158 to 162 °C | COc1ccc(N2CCOCC2)c2sc(NC(=O)N(C)[C@H]3CC[C@H](O)CC3)nc12
160 to 162 °C | Cc1cc(F)ccc1-c1nc(OCCCS(C)(=O)=O)nc2c1ccc(=O)n2-c1c(F)cccc1F
164 to 166 °C | CCOC(=O)C[C@H]1O[C@H](c2ccc(OCC)cc2OC)c2cc(Cl)ccc2N(CC(C)(C)C)C1=O (relative stereo)
252 °C | CCn1cc(-c2ccc(O)cc2)nc1S
209 to 210 °C | COc1nc2cc(Cl)c(Cl)c(-n3c(CO)nnc3-c3cccnc3)c2nc1OC
208 to 209 °C | CCCc1nnc(N2CCN(c3ccc(N4CC(CNC(C)=O)OC4=O)cc3F)CC2)s1 (configuration not stated)
185 to 187 °C | COc1ccc(CCCC2OC(=O)NC2=O)cc1OCc1nc(-c2ccccc2)oc1C (configuration not stated)
157 to 158 °C | COc1ccc(N2CCCn3c2nc2c(Cl)ccc(C(OCC(F)(F)F)C4CC4)c23)c(C)c1 (configuration not stated)
118 to 120 °C | CCC(=O)NCC(COS(C)(=O)=O)c1cccc2ccc(OC)cc12 (configuration not stated)
154 °C | CNC(=O)c1cc(-c2ccc(OC)cc2)nn(C(C)C)c1=O
132 °C | CCOC(=O)CN1C(=O)N(c2ccc(C)cc2)C2(CCCCC2)C1=O
122 to 123 °C | COc1ccc2c3c(ccc2c1)OC(=O)CC3
63 to 65 °C | COc1ccc(Oc2cccc(Cl)n2)cc1
130 °C | CCOC(=O)C1=C(N)NC(N)=C(C(=O)OCC)C1c1cc([N+](=O)[O-])ccc1Cl

— a melting point compilation (Tetko et al.; mined from patent text by program, amines drawn as free bases though some values may be those of a salt)
